One series concerns the target T1, PPARγ (Homo sapiens, UniProt P37231).
T1 construct: The reporter is ERE-βGlob-Luc-SV-Neo
T1 sequence (P37231 238-505 limits assumed): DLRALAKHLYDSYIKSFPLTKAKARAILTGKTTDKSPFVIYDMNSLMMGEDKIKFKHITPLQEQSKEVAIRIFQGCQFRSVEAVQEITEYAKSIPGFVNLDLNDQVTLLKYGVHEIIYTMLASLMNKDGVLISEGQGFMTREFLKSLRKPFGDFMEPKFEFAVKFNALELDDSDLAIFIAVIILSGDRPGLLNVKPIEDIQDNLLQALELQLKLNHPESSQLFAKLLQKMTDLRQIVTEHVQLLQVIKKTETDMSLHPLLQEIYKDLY
Kind of series: Cross-curve PPAR transactivation test, PPARγ. The settings on record: HeLN cells stably transfected with Gal-hPPAR and luciferase reporter; cross curves against reference agonist, Schild regression; n.a means not active; read-out: PPAR gamma Kd app. The class given is cell-based. As to the method: (§1) The activation of the receptors with an agonist (activator) in HeLN cells leads to the expression of a reporter gene, luciferase, which, in the presence of a substrate, generates light. The modulation of the receptors is measured by quantifying the luminescence produced after incubating the cells in the presence of a reference agonist. The ligands displace the agonist from its site. The measurement of the activity is performed by quantifying the light produced. This measurement makes it possible to determine the modulatory activity of the compounds according to the invention by determining the constant that is the affinity of the molecule for the receptor. Since this value can fluctuate depending on the basal activity and the expression of the receptor, it is referred to as Kd apparent (KdApp in nM).
(§2) To determine this constant, “cross curves” of the test product against a reference agonist are produced in a 96-well plate: 10 concentrations of the test product plus a concentration 0 are arranged in a line, and 7 concentrations of the agonist plus a concentration 0 are arranged in a column. This is 88 measurement points for 1 product and 1 receptor. The remaining 8 wells are used for repeatability controls.
(§3) Measurements are also taken for total agonist controls with the same products.
(§4) The HeLN cell lines used are stable transfectants containing the plasmids ERE-βGlob-Luc-SV-Neo (reporter gene) and PPAR (α, δ, γ) Gal-hPPAR. These cells are inoculated into 96-well plates at a rate of 10-000 cells per well in 100 μL of DMEM medium without phenol red and supplemented with 10% of defatted calf serum. The plates are then incubated at 37° C. and 7% CO2 for 16 hours. The various dilutions of the test products and of the reference ligand are added at a rate of 5 μL per well. The plates are then incubated for 18 hours at 37° C. and 7% CO2.
(§5) The culture medium is removed by turning over and 100 μL of a 1:1 PBS/luciferin mixture are added to each well. After 5 minutes, the plates are read by the luminescence detector.
A general note: Reporter assays use an easily measured gene product as a stand-in for the process of interest.

The target in the next series is T2, PPARα (Homo sapiens, UniProt Q07869).
T2 construct: The reporter is ERE-βGlob-Luc-SV-Neo
T2 sequence (Q07869 200-468 limits assumed): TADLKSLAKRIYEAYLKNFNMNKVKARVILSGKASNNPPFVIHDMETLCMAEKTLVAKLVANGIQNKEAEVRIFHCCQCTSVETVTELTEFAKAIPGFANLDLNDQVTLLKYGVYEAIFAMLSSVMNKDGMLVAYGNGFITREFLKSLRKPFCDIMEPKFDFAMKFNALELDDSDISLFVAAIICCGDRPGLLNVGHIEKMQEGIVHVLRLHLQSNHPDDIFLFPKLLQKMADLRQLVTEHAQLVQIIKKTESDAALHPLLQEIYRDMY
Put plainly: Cross-curve PPAR transactivation test, PPARα. The class given is cell-based. The settings on record: HeLN cells stably transfected with Gal-hPPAR and luciferase reporter; cross curves against reference agonist, Schild regression; n.a means not active; read-out: PPAR alpha Kd app. The method, then: as §1, §2, §3, §4, §5

Another series deals with T3, PPARδ (Homo sapiens, UniProt Q03181).
T3 construct: The reporter is ERE-βGlob-Luc-SV-Neo
T3 sequence (Q03181 211-441 limits assumed): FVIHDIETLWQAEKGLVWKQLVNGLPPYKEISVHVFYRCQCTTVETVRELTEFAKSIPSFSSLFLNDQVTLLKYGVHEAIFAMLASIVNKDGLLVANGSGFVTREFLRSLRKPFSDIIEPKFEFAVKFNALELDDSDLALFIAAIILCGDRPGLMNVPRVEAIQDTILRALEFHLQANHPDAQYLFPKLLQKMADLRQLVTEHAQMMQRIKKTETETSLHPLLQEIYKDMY
Kind of series: Cross-curve PPAR transactivation test, PPARδ. It is filed as cell-based. The conditions noted are these: HeLN cells stably transfected with Gal-hPPAR and luciferase reporter; cross curves against reference agonist, Schild regression; n.a means not active; read-out: PPARs delta Kd app. The method, then:
as §1, §2, §3, §4, §5

Each structure is given as a SMILES string. Structures can show the parent of a compound that is named as a salt.

`CCCCOc1cc(/C=C(\CC)C(=O)O)ccc1-c1cccc(CN(C)C(=O)c2ccccc2)c1` [Compound 22, 2-[1-{3′-[(benzoylmethylamino)methyl]-2-butoxybiphenyl-4-yl}meth-(E)-ylidene]butyric acid]: the Kd at PPARγ worked out at 120 nM.

On to `CCCCCCCNC(=O)N(C)c1cccc(-c2ccc(/C=C(\OCC)C(=O)O)cn2)c1` [Compound 4, (Z)-2-ethoxy-3-{6-[3-(3-heptyl-1-methylureido)phenyl]pyrid-3-yl}acrylic acid hydrochloride], for which the Kd on PPARγ turned out to be 4 nM.

As to `CO/C(=C\c1ccc(-c2cccc(N(C)C(=O)NC3CCCCC3)c2)cc1)C(=O)O` [Compound 15, (Z)-3-[3′-(3-cyclohexyl-1-methylureido)biphenyl-4-yl]-2-methoxyacrylic acid], on PPARγ, the Kd worked out at 8 nM.

Consider `CCCCCCCC(=O)N(C)Cc1cccc(-c2ccc(/C=C(\OCC)C(=O)O)cc2)c1` [Compound 1, (Z)-2-ethoxy-3-{3′-[(methyloctanoylamino)methyl]biphenyl-4-yl}acrylic acid], for which the figures for the Kd at PPARα and at PPARγ were 2000 nM and 30 nM, respectively.

Take `CO/C(=C\c1ccc(-c2cccc(N(C)C(=O)NCCc3ccccc3)c2)cc1)C(=O)O` [Compound 16, (Z)-2-methoxy-3-[3′-(1-methyl-3-phenethylureido)biphenyl-4-yl]acrylic acid]: on PPARγ, the Kd stood at 8 nM.

Take `CCCCCCCNC(=O)N(C)c1cccc(-c2ccc(/C=C(\C)C(=O)O)cc2)c1` [Compound 5, (E)-3-[3′-(3-heptyl-1-methylureido)biphenyl-4-yl]-2-methylacrylic acid]: the Kd on PPARγ was 2 nM.

As for `CCCCCNC(=O)N(C)c1cccc(-c2ccc(/C=C(\OCC)C(=O)O)cc2)n1` [Compound 3, (Z)-2-ethoxy-3-{4-[6-(1-methyl-3-pentylureido)pyrid-2-yl]phenyl}acrylic acid], the melting point (in general, the temperature of the solid-liquid transition) turned out to be 162 °C. The Kd on PPARγ was found to be 30 nM.

Turning to `COC(=O)/C(=C/c1ccc(-c2cccc(N(C)C(=O)NC3CCCCC3)c2)cc1)OC` [Compound 14, Methyl (Z)-3-[3′-(3-cyclohexyl-1-methylureido)biphenyl-4-yl]-2-methoxyacrylate], the values for the Kd at PPARδ and at PPARγ were 4000 nM and 60 nM, respectively.

Consider `CCO/C(=C\c1ccc(-c2cccc(N(C)C(=O)NCCc3ccccc3)c2)cc1)C(=O)O` [Compound 10, (Z)-2-ethoxy-3-[3′-(1-methyl-3-phenethylureido)biphenyl-4-yl]acrylic acid], for which, at PPARγ, the Kd is 4 nM.

For `CCCCOc1cc(/C=C(\C)C(=O)O)ccc1-c1cccc(CN(C)C(=O)c2cccc(OC)c2)c1` [Compound 21, (E)-3-(2-butoxy-3′-{[(3-methoxybenzoyl)methylamino]methyl}biphenyl-4-yl)-2-methylacrylic acid], the Kd on PPARγ came out at 30 nM.

`CCCCCNC(=O)N(C)c1cccc(-c2ccc(/C=C(\OC)C(=O)O)cc2OCCCC)c1` [Compound 24, (Z)-3-[2-butoxy-3′-(1-methyl-3-pentylureido)biphenyl-4-yl]-2-methoxyacrylic acid]: the melting point was 61 °C.

Consider `CCCCCNC(=O)N(C)c1cccc(-c2ccc(/C=C(\CCC)C(=O)O)cc2)c1` [Compound 8, 2-[1-[3′-(1-methyl-3-pentylureido)biphenyl-4-yl]meth-(E)-ylidene]pentanoic acid], for which the Kd on PPARα was determined as 500 nM; at PPARδ, 2000 nM; on PPARγ, 4 nM.

Consider `CCCCCNC(=O)N(C)c1cccc(-c2ccc(/C=C(\CC)C(=O)O)cc2)c1` [Compound 9, 2-[1-[3′-(1-methyl-3-pentylureido)biphenyl-4-yl]meth-(E)-ylidene]butyric acid], for which the Kd on PPARα stood at 2000 nM; at PPARδ it was 2000 nM; on PPARγ it was 4 nM.

For the compound `CCCCCCCNC(=O)N(C)c1cccc(-c2ccc(/C=C(\C)C(=O)O)cc2OCC)c1` [Compound 32, (E)-3-[2-ethoxy-3′-(3-heptyl-1-methylureido)biphenyl-4-yl]-2-methylacrylic acid], the values for the Kd at PPARα and on PPARγ were 4000 nM and 1 nM, respectively.

Regarding `CCCCCCCNC(=O)N(C)c1cccc(-c2ccc(/C=C(\OCC)C(=O)O)cc2)n1` [Compound 2, (Z)-2-ethoxy-3-{4-[6-(3-heptyl-1-methylureido)pyrid-2-yl]phenyl}acrylic acid], the Kd on PPARα came out at 1000 nM; on PPARγ, 30 nM.

For the compound `CCCCCNC(=O)N(C)c1cccc(-c2ccc(/C=C(\OC)C(=O)O)cc2)c1` [Compound 13, (Z)-2-Methoxy-3-[3′-(1-methyl-3-pentylureido)biphenyl-4-yl]acrylic acid], the Kd on PPARδ came to 4000 nM; at PPARγ, 8 nM.

Consider `CCCCNC(=O)N(C)c1cccc(-c2ccc(/C=C(\OC)C(=O)O)cc2)c1` [Compound 11, (Z)-3-[3′-(3-butyl-1-methylureido)biphenyl-4-yl]-2-methoxyacrylic acid], for which the Kd on PPARγ amounted to 4 nM.

As for `CCCCCCCNC(=O)N(C)c1cccc(-c2ccc(/C=C(\CC)C(=O)O)cc2)c1` [Compound 7, 2-[1-[3′-(3-heptyl-1-methylureido)biphenyl-4-yl]meth-(E)-ylidene]butyric acid], the Kd on PPARγ came out at 4 nM.

With `CCCCCCCNC(=O)N(C)c1cccc(-c2ccc(/C=C(\C)C(=O)O)cc2OCCC)c1` [Compound 31, (E)-3-[3′-(3-heptyl-1-methylureido)-2-propoxybiphenyl-4-yl]-2-methylacrylic acid], the Kd at PPARγ amounted to 2 nM.

`CCCCCCCNC(=O)N(C)c1cccc(-c2ccc(/C=C(\F)C(=O)O)cc2)c1` [Compound 6, (Z)-2-fluoro-3-[3′-(3-heptyl-1-methylureido)biphenyl-4-yl]acrylic acid]: the Kd on PPARγ came to 60 nM.

These data come from patent US8383652B2, “Biaromatic compounds that modulate PPAR-receptors” (Galderma Research & Development, priority 2005, dated 2013).
